Data set [1] has as its target T1, S1P1 (Homo sapiens, UniProt P21453). Briefly: Receptor binding assay, [33P]sphingosine 1-phosphate competition, membranes of CHO cells expressing S1P1. The following applies: 384 well plate; read-out: S1P1 Binding Ki [M] (384 well plate). The method in brief:
(§1)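 SPA competition on CHO membranes with [33P]S1P at 30 pM (S1P1) or 15 pM (S1P3), in 50 mM HEPES pH 7.5, 5 mM MgCl2, 100 mM NaCl, 0.4% fatty acid-free BSA, 60 min at RT. Non-specific binding defined by 1000-fold unlabeled S1P; Ki values reported.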
Target sequence in this assay (P21453 whole entry, species assumed): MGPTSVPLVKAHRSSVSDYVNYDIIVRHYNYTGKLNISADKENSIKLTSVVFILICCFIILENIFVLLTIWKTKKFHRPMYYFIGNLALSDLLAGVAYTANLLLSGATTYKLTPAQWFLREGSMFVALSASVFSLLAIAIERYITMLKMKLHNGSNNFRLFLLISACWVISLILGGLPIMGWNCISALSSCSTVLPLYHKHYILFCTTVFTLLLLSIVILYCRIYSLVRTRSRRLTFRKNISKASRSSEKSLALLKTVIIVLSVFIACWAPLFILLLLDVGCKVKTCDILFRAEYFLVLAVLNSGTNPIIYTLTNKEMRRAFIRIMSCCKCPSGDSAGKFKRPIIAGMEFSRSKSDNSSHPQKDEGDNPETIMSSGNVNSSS

In a further data set the target is S1P3 (Homo sapiens, UniProt Q99500). The data set can be described thus: Receptor binding assay, [33P]sphingosine 1-phosphate competition, membranes of CHO cells expressing S1P3. The following applies: 384 well plate; read-out: S1P3 Binding Ki [M] (384 well plate). In outline:
as §1

In a further data set the test system is lymphocytes. Briefly: Model of S1P agonists-induced lymphopenia in mice. Type of data set: in vivo. The following applies: oral route, 30 mpk. As for the experimental part:
(§2) Female C57BL/6 mice (Elevage Janvier) (8 week old) receive S1P agonists by oral route. Blood is sampled in heparinized (100 IU/kg, ip) mice by intracardiac or retroorbital puncture under isoflurane anesthesia 2 to 120 hrs after drug treatment. The white blood cells (lymphocytes and neutrophils) are counted using a Beckman/Coulter counter. The quality of blood sampling is assessed by counting erythocytes and platelets.

The nature of data set [2]: Pharmacokinetics from lymphopenia study (mouse). The following applies: PK-PD (30 mpk). In kind it is in vivo. As for the experimental part:
as §2
The pharmacokinetic properties of compound of example 31, 2-({2-Fluoro-4-[5-(2′-methyl-2-trifluoromethyl-biphenyl-4-yl)-[1,2,4]oxadiazol-3-yl]-benzyl}-methyl-amino)-2-methyl-propionic acid, are the following: […]

For data set [3], the target named is T1, S1P1. The data set can be described thus: S1P1 internalization assay in S1P1-U2OS cells (cell imaging). In kind it is cell-based. The arrangement: host or cells: U2OS (human bone osteosarcoma epithelial cells). The following applies: U2OS cells expressing S1P1-EGFP, 384-well format. The method in brief: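 U2OS cells stably expressing human S1P1-EGFP, serum-starved 2 h in medium with 0.1% fatty-acid-free BSA, then compound 1 h at 37° C. After fixation and Hoechst nuclear stain, receptor internalization imaged as EGFP spot count per nucleus.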
Target sequence in this assay (P21453 whole entry): as the sequence (P21453 whole entry, species assumed) above

Setting [4] is: female, C57BL/6, plasma, 30 mg/kg, oral route.

Structures can show the parent of a compound that is named as a salt.

Chain of S1P3 (Q99500 whole entry, species assumed): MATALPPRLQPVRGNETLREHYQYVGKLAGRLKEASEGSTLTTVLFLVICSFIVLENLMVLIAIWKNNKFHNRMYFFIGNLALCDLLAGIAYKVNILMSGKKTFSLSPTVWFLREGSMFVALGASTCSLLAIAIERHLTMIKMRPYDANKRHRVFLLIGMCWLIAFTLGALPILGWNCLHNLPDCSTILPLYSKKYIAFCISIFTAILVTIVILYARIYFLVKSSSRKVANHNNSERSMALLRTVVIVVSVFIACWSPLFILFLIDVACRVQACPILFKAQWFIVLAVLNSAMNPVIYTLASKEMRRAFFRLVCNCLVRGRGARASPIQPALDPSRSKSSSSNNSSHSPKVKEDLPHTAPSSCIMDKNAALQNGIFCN

For the molecule `CCC(NCc1ccc(-c2noc(-c3ccc(-c4ccccc4C)c(C(F)(F)F)c3)n2)cc1F)C(=O)O` (centres unmarked) (as salt: hydrochloride) [Example 41, 2-[(2-fluoro-4-{5-[2′-methyl-2-(trifluoromethyl)biphenyl-4-yl]-1,2,4-oxadiazol-3-yl}benzyl)amino]butanoic acid, hydrochloride salt], the melting point turned out to be 214 °C.

Turning to `Cc1ccccc1-c1ccc(-c2nc(-c3cccc(C(C)NCC(=O)O)c3)no2)cc1C(F)(F)F` (centres unmarked) (as salt: hydrochloride) [Example 42, N-[1-(3-{5-[2′-methyl-2-(trifluoromethyl)biphenyl-4-yl]-1,2,4-oxadiazol-3-yl}phenyl)ethyl]glycine, hydrochloride salt], the melting point is 177 °C.

Take `Cc1ccccc1-c1ccc(-c2nc(-c3ccc(CN(C)C(C)(C)C(=O)O)c(F)c3)no2)cc1C(F)(F)F` [Example 31, 2-({2-Fluoro-4-[5-(2′-methyl-2-trifluoromethyl-biphenyl-4-yl)-[1,2,4]oxadiazol-3-yl]-benzyl}-methyl-amino)-2-methyl-propionic acid]: on S1P1 [1], the Ki stood at 5.32e-09 M. In addition, the Ki at S1P3 was found to be 2.54e-06 M. The “% of lymphopenia in mouse at 48 h” value in the data set on lymphocytes is on record as “% of lymphopenia in mouse at 48 h 67 +/− 6”. The “Lymphe node/plasma ratio: 24 h” value in data set [2] (24 h) turned out to be 2.5. In addition, the “Lymphe node/plasma ratio: 48 h” value in data set [2] (48 h) came out at 2.7. The molecule also gave a CI/F in data set [2] (oral route) of 0.4 L/kg/h. Besides, the Kp in data set [2] (female, C57BL/6, brain/plasma, oral, 30 mg/kg, ratio of AUCz, read-out: Brain/plasma ratio: AUCZ (h*ng/ml)) stood at 3.5. Moreover, in data set [2] (setting [4]), the AUC(0-inf) came to 75000 ng·h/mL, the Cmax was determined as 7420 ng/mL and the Tmax stood at 2 h. The half-life in data set [2] (female, C57BL/6, plasma, 30 mg/kg, oral route, read-out: T½ (converted)) was 378 min. It took 36.6 nM to reach a half-maximal effect at S1P1 [3] (EC50).

The record behind these values is US9029405B2, “5-(biphenyl-4-yl)-3-phenyl-1,2,4-oxadiazolyl derivatives as ligands on the sphingosine 1-phosphate(SIP)receptors” (Merck Serono S.A., priority 2010, dated 2015).
